Among the test systems are EKVX NSCLC; HCT-116 colon; HCT-15 colon; MOLT-4 leukemia; NCI-H226 lung; RPMI-8226 leukemia; SF-539 CNS; SK-MEL-2 melanoma; SK-MEL-28 melanoma; SNB-75 CNS; SR leukemia; U251 CNS; UO-31 renal; CCRF-CEM leukemia; MDA-MB-231 breast; NCI/ADR-RES ovarian; T-47D breast.
What all share (test): inhibition of tumour cell growth, NCI panel, 48 h

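How tested: cells in 96-well plates exposed to compound for 48 hours at five concentrations. GI50 is the concentration that inhibits growth by half. At the TGI there is no net growth.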

The values below come from PubChem BioAssay (NCI).

`CCCCNC(=O)C1C2CCC(O2)C1C(=O)O` (centres undefined): the TGI stood at 65.6 µM with EKVX NSCLC; 25.2 µM in the assay with HCT-116 colon; 70.3 µM in the assay on HCT-15 colon; 40.4 µM in the assay on MOLT-4 leukemia; 35.3 µM with NCI-H226 lung; 42 µM in the assay with RPMI-8226 leukemia. The TGI in the assay on SF-539 CNS was determined as 39.6 µM; with SK-MEL-2 melanoma, 54.8 µM; in the assay with SK-MEL-28 melanoma it was 76.1 µM; in the assay on SNB-75 CNS it was 52.1 µM; in the assay with SR leukemia, 95.4 µM; in the assay on U251 CNS, 29 µM. In the assay with UO-31 renal, the TGI was over 100 µM.

Turning to `CC1=NN(c2nc(N)nc(C/C(N)=N/O)n2)C(C)(C)C1`, the TGI with CCRF-CEM leukemia, in the assay with EKVX NSCLC, with HCT-116 colon, with HCT-15 colon, with MDA-MB-231 breast and in the assay on MOLT-4 leukemia was over 100 µM in each case. Moreover, the TGI with NCI-H226 lung, in the assay with NCI/ADR-RES ovarian, with RPMI-8226 leukemia, in the assay with SF-539 CNS, with SK-MEL-28 melanoma and in the assay with SNB-75 CNS was over 100 µM in each case. The TGI with U251 CNS and in the assay with UO-31 renal was over 100 µM in each case.

For the compound `CCCCCCCCCC(=O)OCC1OC(n2cc(F)c(=O)[nH]c2=O)C(NC(=O)OCc2ccccc2)C(OC(=O)CCCCCCCCC)C1O` (centres undefined), the TGI was over 100 µM in the assay with CCRF-CEM leukemia; over 100 µM in the assay on EKVX NSCLC; 28.1 µM in the assay with HCT-116 colon; over 100 µM with HCT-15 colon; over 100 µM in the assay on MOLT-4 leukemia; 65.2 µM with RPMI-8226 leukemia. The TGI is over 100 µM in the assay on SF-539 CNS; over 100 µM with SK-MEL-2 melanoma; over 100 µM in the assay with SK-MEL-28 melanoma; over 100 µM in the assay on SNB-75 CNS; 81.2 µM with SR leukemia; 30.3 µM in the assay on U251 CNS. In the assay on UO-31 renal, this compound displayed a TGI of over 100 µM.

For `CC(=O)OC[C@@]12Cc3ccc(C)c(O)c3[C@]1(C)[C@@H](OC(C)=O)[C@]1(O)[C@H]([C@@H](OC(=O)c3ccccc3)[C@@H](C)[C@H]1OC(C)=O)[C@H]2OC(C)=O`, the TGI in the assay on CCRF-CEM leukemia, in the assay on EKVX NSCLC, in the assay on HCT-116 colon, in the assay with HCT-15 colon, with MDA-MB-231 breast and with MOLT-4 leukemia was over 50 µM each time. The TGI with NCI-H226 lung, in the assay on NCI/ADR-RES ovarian, in the assay on SF-539 CNS, in the assay on SK-MEL-2 melanoma, with SNB-75 CNS and in the assay on SR leukemia was over 50 µM each time. Besides, the TGI in the assay on T-47D breast, in the assay on U251 CNS and in the assay on UO-31 renal was over 50 µM throughout.

Turning to `C#CCN(N=O)C(=O)NCCCCC(NC(C)=O)C(=O)NCc1ccccc1` (centres undefined), the TGI in the assay on CCRF-CEM leukemia, in the assay on EKVX NSCLC, in the assay on HCT-116 colon, in the assay on HCT-15 colon, in the assay with MOLT-4 leukemia and in the assay with NCI-H226 lung was over 100 µM each time. The TGI in the assay with RPMI-8226 leukemia, in the assay with SF-539 CNS, in the assay with SK-MEL-28 melanoma, with SNB-75 CNS, in the assay with SR leukemia and in the assay with U251 CNS was over 100 µM each time. Further, in the assay with UO-31 renal, the TGI is over 100 µM.

With `O=c1cc(-c2ccco2)[nH]c2cc3c(cc12)OCO3`, the TGI in the assay on CCRF-CEM leukemia, with EKVX NSCLC, with HCT-116 colon, with HCT-15 colon, in the assay with MOLT-4 leukemia and with NCI-H226 lung was over 100 µM each time. The TGI with RPMI-8226 leukemia was over 100 µM; with SF-539 CNS, 75.5 µM; in the assay on SK-MEL-2 melanoma, over 100 µM; with SK-MEL-28 melanoma, over 100 µM; in the assay with SNB-75 CNS, 56.5 µM; with SR leukemia it was over 100 µM. In addition, the TGI in the assay with U251 CNS and with UO-31 renal was over 100 µM throughout. The GI50 in the assay on HCT-116 colon is 39.9 µM; in the assay with NCI-H226 lung, 24.4 µM.

Consider `CCc1cc(CCC(=O)Nc2ccccc2[N+](=O)[O-])[nH]c(=S)n1`, for which the TGI in the assay on CCRF-CEM leukemia, with EKVX NSCLC, in the assay with HCT-116 colon, in the assay on HCT-15 colon, with MOLT-4 leukemia and in the assay with NCI-H226 lung was over 100 µM throughout. Further, the TGI with SF-539 CNS, in the assay with SK-MEL-2 melanoma, in the assay with SK-MEL-28 melanoma, in the assay on SR leukemia, in the assay with U251 CNS and in the assay with UO-31 renal was over 100 µM each time.

With `COc1ccc(/C=C2\CCC(CCN(C)C)(C3=CCCC3)C2=O)cc1Br` (centres undefined), the TGI in the assay on CCRF-CEM leukemia stood at 5.74 µM; with EKVX NSCLC, 8.62 µM; in the assay on HCT-116 colon, 17.1 µM; with HCT-15 colon it was 15.5 µM; with MOLT-4 leukemia, 6.01 µM; in the assay with NCI-H226 lung it was 31.4 µM. Moreover, the TGI stood at 5.5 µM in the assay on RPMI-8226 leukemia; 25.7 µM with SF-539 CNS; 22.2 µM in the assay on SK-MEL-2 melanoma; 7.7 µM with SK-MEL-28 melanoma; 17.5 µM with SNB-75 CNS; 5.06 µM in the assay on SR leukemia. Moreover, the TGI with U251 CNS is 19 µM; with UO-31 renal, 17.6 µM.

On to `Cc1ccc(C(=O)/C=C/c2cccc([N+](=O)[O-])c2)cc1`, for which the TGI with CCRF-CEM leukemia is over 89.9 µM; in the assay on EKVX NSCLC it was over 100 µM; in the assay on HCT-116 colon, 31.8 µM; in the assay with HCT-15 colon, over 64 µM; with MOLT-4 leukemia, 7.39 µM; in the assay on NCI-H226 lung it was over 100 µM. The TGI was over 78.8 µM in the assay on RPMI-8226 leukemia; over 100 µM in the assay with SF-539 CNS; over 100 µM in the assay with SK-MEL-2 melanoma; over 100 µM in the assay with SK-MEL-28 melanoma; over 92.9 µM in the assay with SNB-75 CNS; 51.1 µM with SR leukemia. The TGI in the assay with U251 CNS was over 55.5 µM; in the assay on UO-31 renal, over 100 µM.
